In patent publication US20260199367A1, “PLK1 DEGRADATION INDUCING COMPOUNDS WITH INCREASED RIGIDITY” (UPPTHERA, INC., priority 2022, published 2026):

Experiments:
Type in all cases: cell-based
NCI-H69 (H69) cell line = experiment: Cell viability assay for NCI-H69 cell line; settings: Homo sapiens, NCI-H69, 120 h, 5 days, EZ-Cytox, 0.46-3000 nM
In short: (§1)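 Cells seeded at 3×10^4 per well in RPMI 1640 with FBS, treated with DMSO-dissolved compound in 3-fold dilutions from 3000 nM to 0.46 nM for 5 days. Viability read by EZ-Cytox (4 h) absorbance at 450 nm; IC50 reported in grades A/B/C.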

[1] = system: NCI-H526 (H526) cell line; experiment: Cell viability assay for NCI-H526 cell line; settings: Homo sapiens, NCI-H526, 120 h, 5 days, EZ-Cytox, 0.46-3000 nM
In short: as §1

PLK1 = target: T1, PLK1 (Homo sapiens, UniProt P53350); experiment: Luciferase assay for PLK1 in HeLa LgBit (PLK1-HiBit KI) cell line; settings: released after thymidine block, compound 300 nM, luminescence after 9 hours
T1 construct: endogenous in cells; host or cells: HeLa LgBit (PLK1-HiBit KI): HeLa cells stably expressing LgBit, with CRISPR/Cas9 knock-in of HiBit at the endogenous PLK1 locus
In short: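 HeLa cells stably expressing LgBit, with HiBit knocked in at the endogenous PLK1 C-terminus. Cells synchronised by 2 mM thymidine block for 24 h, released, then cultured 18 h. Endurazine added, compounds at 300 nM, luminescence tracked in real time at 470-480 nm.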

T1 sequence (P53350 whole entry): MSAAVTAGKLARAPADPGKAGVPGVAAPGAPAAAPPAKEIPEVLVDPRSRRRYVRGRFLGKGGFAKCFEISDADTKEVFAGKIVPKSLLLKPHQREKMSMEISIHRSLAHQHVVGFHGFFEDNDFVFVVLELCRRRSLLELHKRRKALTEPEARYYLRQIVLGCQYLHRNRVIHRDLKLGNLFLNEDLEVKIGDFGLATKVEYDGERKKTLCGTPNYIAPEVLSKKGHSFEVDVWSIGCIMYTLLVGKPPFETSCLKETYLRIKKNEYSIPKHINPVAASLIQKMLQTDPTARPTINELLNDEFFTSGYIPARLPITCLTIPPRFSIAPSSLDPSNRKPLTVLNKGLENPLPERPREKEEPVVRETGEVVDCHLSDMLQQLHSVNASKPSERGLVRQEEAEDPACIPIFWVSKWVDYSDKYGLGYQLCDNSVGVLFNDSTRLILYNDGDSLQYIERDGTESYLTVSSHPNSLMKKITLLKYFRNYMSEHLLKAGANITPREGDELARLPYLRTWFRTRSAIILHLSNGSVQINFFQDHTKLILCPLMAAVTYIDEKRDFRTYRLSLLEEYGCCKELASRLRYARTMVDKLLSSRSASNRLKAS

- Value (luminescence value, PLK1-HiBit) (PLK1): 0.241
Compound: COc1cc(C(=O)NN2CCC(C(N)CN3CCN(c4ccc(C5CCC(=O)NC5=O)cc4F)CC3)CC2)ccc1Nc1ncc2c(n1)N(C(C)C)CC(F)(F)C(=O)N2C (stereo not drawn) [Compound 31, N-(4-(1-amino-2-(4-(4-(2,6-dioxopiperidin-3-yl)-2-fluorophenyl)piperazin-1-yl)ethyl)piperidin-1-yl)-4-((7,7-difluoro-9-isopropyl-5-methyl-6-oxo-6,7,8,9-tetrahydro-5H-pyrimido[4,5-b][1,4]diazepin-2-yl)amino)-3-methoxybenzamide]
- IC50 (NCI-H69 (H69) cell line): ≤ 50 nM
- IC50 [1]: ≤ 50 nM
